Consider 36 substances from US10385103B2, “Cell-permeable (ICP)-SOCS3 recombinant protein and uses thereof” (CELLIVERY THERAPEUTICS, INC., priority 2014, dated 2019).

For this assay, the system named is RAW 264.7 cells. Briefly: Quantitative cell-permeability of FITC-labeled aMTD- or rPeptide-fused CRA recombinant proteins (flow cytometry). The class given is cell-based. To be noted: for Relative Ratio to aMTD AVE: cell-permeability of rPeptide-fused CRA recombinant protein relative to average of 240 aMTDs. The method, boiled down:
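Uptake of fluorescently labeled, peptide-fused cargo proteins was quantified by flow cytometry (Guava, Millipore) and analyzed in FlowJo software. RAW 264.7 cells received 10 μM FITC-labeled protein for 1 hour at 37° C., were rinsed three times with cold PBS, and were trypsinized with 0.25% tripsin/EDTA for 20 minutes at 37° C. to remove bound protein before measurement. Permeability was expressed relative to reference proteins.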
On the technique in general: Flow cytometry measures light scatter and fluorescence of single cells or particles in a stream.

[1] abbreviates: cell-permeability of aMTD-fused CRA recombinant protein relative to negative control (A: rP38).
[2] abbreviates: cell-permeability of aMTD-fused CRA recombinant protein relative to reference CPP (B: MTM12).
The mark [3] stands for this setting: cell-permeability of aMTD-fused CRA recombinant protein relative to reference CPP (C: MTD85).
[4] abbreviates: cell-permeability relative to negative control rP38 (A type), aMTD-fused CRA recombinant protein, 10 μM FITC-labeled, 1 hour, 37° C., RAW 264.7 cells.
The mark [5] stands for this setting: cell-permeability relative to reference CPP MTD85 (C type), aMTD-fused CRA recombinant protein, 10 μM FITC-labeled, 1 hour, 37° C., RAW 264.7 cells.
Where [6] appears, read: cell-permeability relative to reference CPP MTM12 (B type), aMTD-fused CRA recombinant protein, 10 μM FITC-labeled, 1 hour, 37° C., RAW 264.7 cells.
Where [7] appears, read: 10 μM FITC-labeled, 1 hour, 37° C., RAW 264.7 cells.

For the substance “601 (AAILIAVPIAAP; Amino acid Sequence of aMTD601) [compound 601]”, the “Relative Ratio (Fold) A” value under setting [1] worked out at 26.8 Fold. Under setting [2], the “Relative Ratio (Fold) B” value stood at 17.9 Fold. In addition, under setting [3], the “Relative Ratio (Fold) C” value came to 9.0 Fold.
For the substance “602 (VIVALAAPVLAP; Amino acid Sequence of aMTD602) [compound 602]”, under setting [1], the “Relative Ratio (Fold) A” value is given as 9.9 Fold. The “Relative Ratio (Fold) B” value under setting [2] was found to be 5.8 Fold. Moreover, the “Relative Ratio (Fold) C” value under setting [3] was found to be 3.4 Fold.
Consider “603 (VLVALAAPVIAP; Amino acid Sequence of aMTD603) [compound 603]”, for which the “Relative Ratio (Fold) A” value under setting [1] amounted to 54.1 Fold. Besides, under setting [2], the “Relative Ratio (Fold) B” value was 36.1 Fold. Also, under setting [3], the “Relative Ratio (Fold) C” value stood at 18.2 Fold.
Turning to “604 (VALIAVAPAVVP; Amino acid Sequence of aMTD604) [compound 604]”, the “Relative Ratio (Fold) A” value under setting [4] is recorded as 4.3 Fold. In addition, under setting [5], the “Relative Ratio (Fold) C” value came to 1.5 Fold. Also, the “Relative Ratio (Fold) B” value under setting [6] was determined as 2.5 Fold.
Regarding “605 (VIAAVLAPVAVP; Amino acid Sequence of aMTD605) [compound 605]”, under setting [1], the “Relative Ratio (Fold) A” value is 11.0 Fold. In addition, the “Relative Ratio (Fold) B” value under setting [2] stood at 7.4 Fold. Besides, under setting [3], the “Relative Ratio (Fold) C” value is reported as 3.7 Fold.
As to “622 (ALIVLAAPVAVP; Amino acid Sequence of aMTD622) [compound 622]”, the “Relative Ratio (Fold) A” value turned out to be 10.6 Fold under setting [1] and 10.6 Fold under setting [4]. The “Relative Ratio (Fold) B” value turned out to be 7.1 Fold under setting [2] and 7.1 Fold under setting [6]. Also, the “Relative Ratio (Fold) C” value is given as 3.6 Fold under setting [3] and 3.6 Fold under setting [5].
With “623 (VAAAIALPAIVP; Amino acid Sequence of aMTD623) [compound 623]”, under setting [4], the “Relative Ratio (Fold) A” value was found to be 0.8 Fold. Further, the “Relative Ratio (Fold) C” value under setting [5] was 0.3 Fold. The “Relative Ratio (Fold) B” value under setting [6] is given as 0.6 Fold.
Regarding “625 (ILAAAAAPLIVP; Amino acid Sequence of aMTD625) [compound 625]”, the “Relative Ratio (Fold) A” value under setting [1] is 20.3 Fold. For the same substance, the “Relative Ratio (Fold) B” value under setting [2] is 13.9 Fold. In addition, the “Relative Ratio (Fold) C” value under setting [3] was found to be 7.0 Fold.
On to “635 (GSTGGSQQNNQY; Amino acid Sequence of rPeptide ID 635) [compound 635]”, for which, under setting [7], the “Relative Ratio to aMTD AVE” value is on record as 0.07.
For the substance “643 (LALVLAAPAIVP; Amino acid Sequence of aMTD643) [compound 643]”, under setting [1], the “Relative Ratio (Fold) A” value was 11.8 Fold. Under setting [2], the “Relative Ratio (Fold) B” value stood at 7.9 Fold. Moreover, the “Relative Ratio (Fold) C” value under setting [3] is 4.0 Fold.
Turning to “645 (ALAVVALPAIVP; Amino acid Sequence of aMTD645) [compound 645]”, the “Relative Ratio (Fold) A” value under setting [4] stood at 4.3 Fold. For the same substance, under setting [5], the “Relative Ratio (Fold) C” value worked out at 1.5 Fold. The “Relative Ratio (Fold) B” value under setting [6] is recorded as 2.9 Fold.
For the substance “661 (AAILAPIVAALP; Amino acid Sequence of aMTD661) [compound 661]”, the “Relative Ratio (Fold) A” value under setting [1] came to 21.4 Fold. For the same substance, under setting [2], the “Relative Ratio (Fold) B” value turned out to be 14.3 Fold. The “Relative Ratio (Fold) C” value under setting [3] stood at 7.2 Fold.
With “664 (ILIAIAIPAAAP; Amino acid Sequence of aMTD664) [compound 664]”, the “Relative Ratio (Fold) A” value under setting [4] worked out at 5.7 Fold. The “Relative Ratio (Fold) C” value under setting [5] is 1.9 Fold. Moreover, under setting [6], the “Relative Ratio (Fold) B” value is given as 3.8 Fold.
Take “665 (LAIVLAAPVAVP; Amino acid Sequence of aMTD665) [compound 665]”: under setting [1], the “Relative Ratio (Fold) A” value is listed as 14.7 Fold. Also, the “Relative Ratio (Fold) B” value under setting [2] was 9.9 Fold. The “Relative Ratio (Fold) C” value under setting [3] was found to be 5.0 Fold.
With “666 (AAIAIIAPAIVP; Amino acid Sequence of aMTD666) [compound 666]”, the “Relative Ratio (Fold) A” value under setting [1] amounted to 14.7 Fold. Besides, the “Relative Ratio (Fold) B” value under setting [2] is on record as 9.9 Fold. For the same substance, the “Relative Ratio (Fold) C” value under setting [3] was 5.0 Fold.
For “667 (LAVAIVAPALVP; Amino acid Sequence of aMTD667) [compound 667]”, the “Relative Ratio (Fold) A” value under setting [4] came to 6.9 Fold. Moreover, under setting [5], the “Relative Ratio (Fold) C” value is listed as 2.3 Fold. Moreover, the “Relative Ratio (Fold) B” value under setting [6] was 4.6 Fold.
For “683 (LAIVLAAPAVLP; Amino acid Sequence of aMTD683) [compound 683]” the same measures were 5.5 Fold, 1.9 Fold and 3.2 Fold.
As to “684 (AAIVLALPAVLP; Amino acid Sequence of aMTD684) [compound 684]”, the “Relative Ratio (Fold) A” value under setting [4] is recorded as 3.5 Fold. Also, the “Relative Ratio (Fold) C” value under setting [5] stood at 1.2 Fold. Besides, under setting [6], the “Relative Ratio (Fold) B” value is listed as 2.1 Fold.
With “685 (ALLVAVLPAALP; Amino acid Sequence of aMTD685) [compound 685]”, the “Relative Ratio (Fold) A” value under setting [1] is 10.2 Fold. Under setting [2], the “Relative Ratio (Fold) B” value is listed as 5.9 Fold. In addition, the “Relative Ratio (Fold) C” value under setting [3] is on record as 3.4 Fold.
“686 (AALVAVLPVALP; Amino acid Sequence of aMTD686) [compound 686]”: under setting [1], the “Relative Ratio (Fold) A” value is 19.5 Fold. Also, the “Relative Ratio (Fold) B” value under setting [2] came out at 13.1 Fold. In addition, under setting [3], the “Relative Ratio (Fold) C” value is 6.6 Fold.
Turning to “687 (AILAVALPLLAP; Amino acid Sequence of aMTD687) [compound 687]”, the “Relative Ratio (Fold) A” value under setting [1] worked out at 12.0 Fold. The “Relative Ratio (Fold) B” value under setting [2] came out at 7.0 Fold. Also, under setting [3], the “Relative Ratio (Fold) C” value was 4.1 Fold.
As for “692 (PAPLPPVVILAV; Amino acid Sequence of rPeptide ID 692) [compound 692]”, the “Relative Ratio to aMTD AVE” value under setting [7] is 0.74.
Still for that read-out and setting: for “693 (AAPVLPVAVPIV; Amino acid Sequence of rPeptide ID 693) [compound 693]” the value was 0.13.
For the substance “700 (GTSNTCQSNQNS; Amino acid Sequence of rPeptide ID 700) [compound 700]”, under setting [7], the “Relative Ratio to aMTD AVE” value is recorded as 0.05. Besides, for the setting “relative cell-permeability of rPeptide vs reference A (not defined)”, the “Relative Ratio (Fold) A” value turned out to be 1.0 Fold. Moreover, the “Relative Ratio (Fold) B” value (relative cell-permeability of rPeptide vs reference CPP B: MTM12) is 0.6 Fold. The “Relative Ratio (Fold) C” value (relative cell-permeability of rPeptide vs reference CPP C: MTD85) worked out at 0.3 Fold.
Take “703 (IVAVALVPALAP; Amino acid Sequence of aMTD703) [compound 703]”: under setting [1], the “Relative Ratio (Fold) A” value worked out at 29.2 Fold. Moreover, the “Relative Ratio (Fold) B” value under setting [2] was determined as 19.5 Fold. Besides, the “Relative Ratio (Fold) C” value under setting [3] worked out at 9.9 Fold.
Regarding “705 (IVAVALLPALAP; Amino acid Sequence of aMTD705) [compound 705]”, the “Relative Ratio (Fold) A” value under setting [1] worked out at 29.6 Fold. Besides, the “Relative Ratio (Fold) B” value under setting [2] is 19.1 Fold. In addition, the “Relative Ratio (Fold) C” value under setting [3] is given as 9.7 Fold.
With “706 (IVAVALLPAVAP; Amino acid Sequence of aMTD706) [compound 706]”, the “Relative Ratio (Fold) A” value under setting [1] was determined as 12.0 Fold. In addition, under setting [2], the “Relative Ratio (Fold) B” value came out at 7.0 Fold. The “Relative Ratio (Fold) C” value under setting [3] worked out at 4.1 Fold.
Consider “707 (IVALAVLPAVAP; Amino acid Sequence of aMTD707) [compound 707]”, for which the “Relative Ratio (Fold) A” value under setting [4] came out at 7.3 Fold. Under setting [5], the “Relative Ratio (Fold) C” value is given as 2.5 Fold. Besides, under setting [6], the “Relative Ratio (Fold) B” value was 4.9 Fold.
Regarding “724 (VAVLAVLPALAP; Amino acid Sequence of aMTD724) [compound 724]”, the “Relative Ratio (Fold) A” value under setting [1] came to 47.5 Fold. For the same substance, the “Relative Ratio (Fold) B” value under setting [2] was found to be 31.8 Fold. Further, the “Relative Ratio (Fold) C” value under setting [3] worked out at 16.1 Fold.
“725 (IAVLAVAPAVLP; Amino acid Sequence of aMTD725) [compound 725]”: under setting [1], the “Relative Ratio (Fold) A” value is 11.2 Fold. The “Relative Ratio (Fold) B” value under setting [2] was 7.5 Fold. Further, the “Relative Ratio (Fold) C” value under setting [3] is 3.8 Fold.
In the same order, the values of “726 (LAVAIIAPAVAP; Amino acid Sequence of aMTD726) [compound 726]” are 16.5 Fold, 11.0 Fold and 5.6 Fold.
In the case of “727 (VALAIALPAVLP; Amino acid Sequence of aMTD727) [compound 727]”, the “Relative Ratio (Fold) A” value under setting [1] was found to be 54.7 Fold. Besides, the “Relative Ratio (Fold) B” value under setting [2] is 36.7 Fold. In addition, the “Relative Ratio (Fold) C” value under setting [3] was determined as 18.5 Fold.
For “743 (AIAIALVPVALP; Amino acid Sequence of aMTD743) [compound 743]” the same measures were 7.4 Fold, 4.9 Fold and 2.5 Fold.
Take “744 (AAVVIVAPVALP; Amino acid Sequence of aMTD744) [compound 744]”: the “Relative Ratio (Fold) A” value under setting [1] is recorded as 11.0 Fold. Besides, the “Relative Ratio (Fold) B” value under setting [2] is 7.3 Fold. Further, the “Relative Ratio (Fold) C” value under setting [3] is 3.7 Fold.
For the substance “746 (VAIIVVAPALAP; Amino acid Sequence of aMTD746) [compound 746]”, the “Relative Ratio (Fold) A” value under setting [1] is given as 7.6 Fold. For the same substance, the “Relative Ratio (Fold) B” value under setting [2] is 4.4 Fold. In addition, the “Relative Ratio (Fold) C” value under setting [3] is 2.6 Fold.
On to “763 (VAVLIAVPALAP; Amino acid Sequence of aMTD763) [compound 763]”, for which, under setting [1], the “Relative Ratio (Fold) A” value stood at 12.3 Fold. Under setting [2], the “Relative Ratio (Fold) B” value was found to be 7.2 Fold. For the same substance, the “Relative Ratio (Fold) C” value under setting [3] was 4.2 Fold.
